How the values were obtained:
human fibrinogen = molecular target: T1, human fibrinogen (Homo sapiens, UniProt P02671+P02675+P02679); assay: Composition of amino acids in fibrinogen; assay type: biochemical; details: Yoshixol 4 μl
T1 sequence (P02671 20-629 limits assumed): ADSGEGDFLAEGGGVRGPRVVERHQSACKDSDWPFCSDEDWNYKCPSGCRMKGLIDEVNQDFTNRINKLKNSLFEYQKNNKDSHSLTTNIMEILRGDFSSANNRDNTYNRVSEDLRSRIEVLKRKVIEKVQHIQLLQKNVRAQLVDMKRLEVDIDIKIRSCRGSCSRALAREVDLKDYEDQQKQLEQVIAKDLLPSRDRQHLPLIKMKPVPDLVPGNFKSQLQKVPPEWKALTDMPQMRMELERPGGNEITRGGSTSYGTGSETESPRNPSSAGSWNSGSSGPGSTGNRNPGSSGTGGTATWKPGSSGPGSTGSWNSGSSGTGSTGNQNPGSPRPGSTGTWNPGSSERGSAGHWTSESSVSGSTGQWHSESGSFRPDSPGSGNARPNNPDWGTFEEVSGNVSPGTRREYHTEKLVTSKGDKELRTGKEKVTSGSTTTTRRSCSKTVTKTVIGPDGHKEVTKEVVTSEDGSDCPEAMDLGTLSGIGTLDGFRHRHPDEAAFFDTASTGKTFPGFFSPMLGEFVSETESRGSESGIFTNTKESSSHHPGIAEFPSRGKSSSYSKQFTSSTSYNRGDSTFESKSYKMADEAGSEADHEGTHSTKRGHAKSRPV
T1 sequence (P02675 31-491): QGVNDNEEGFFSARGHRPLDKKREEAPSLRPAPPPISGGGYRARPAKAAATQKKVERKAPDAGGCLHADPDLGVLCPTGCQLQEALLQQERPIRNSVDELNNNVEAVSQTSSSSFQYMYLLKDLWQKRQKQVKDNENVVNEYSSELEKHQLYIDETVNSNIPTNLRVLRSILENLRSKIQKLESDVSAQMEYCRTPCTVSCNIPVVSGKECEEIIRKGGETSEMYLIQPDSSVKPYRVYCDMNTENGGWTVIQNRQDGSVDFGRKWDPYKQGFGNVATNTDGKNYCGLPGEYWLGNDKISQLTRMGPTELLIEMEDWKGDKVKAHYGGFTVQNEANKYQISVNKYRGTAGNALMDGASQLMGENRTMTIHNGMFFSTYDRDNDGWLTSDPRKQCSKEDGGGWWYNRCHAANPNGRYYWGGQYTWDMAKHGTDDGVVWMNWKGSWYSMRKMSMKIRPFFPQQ
T1 sequence (P02679 27-433 limits assumed): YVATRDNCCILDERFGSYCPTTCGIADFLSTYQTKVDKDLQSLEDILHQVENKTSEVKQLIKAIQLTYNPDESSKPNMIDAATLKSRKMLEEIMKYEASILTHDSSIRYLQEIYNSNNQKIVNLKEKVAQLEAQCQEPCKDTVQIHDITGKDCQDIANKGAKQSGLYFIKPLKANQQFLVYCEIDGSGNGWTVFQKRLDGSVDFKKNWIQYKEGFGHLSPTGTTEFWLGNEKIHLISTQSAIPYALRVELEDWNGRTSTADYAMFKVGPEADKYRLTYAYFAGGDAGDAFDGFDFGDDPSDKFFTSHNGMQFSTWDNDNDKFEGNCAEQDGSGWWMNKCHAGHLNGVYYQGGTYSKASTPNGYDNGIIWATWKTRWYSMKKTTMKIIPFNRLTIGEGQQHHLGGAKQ
Method: Changes in composition of amino acids were analyzed by use of 1 ml of human blood serum, 1 ml of human fibrinogen (concentration of 160 mg/dl), 1 ml of human thrombin before and after treatment with Yoshixol (4 μl). The total amino acids in the human blood serum which was treated with Yoshixol decreased by 41%. And, ratio of each composition was altered after the treatment so that as an example the concentration of phosphoserine increased about 20 times which level was from 7.2 picomole to 164.8 picomole.

[1] = Acute and chronic toxicity, intravenous; assay type: in vivo, rabbit and dog
Method: In order to investigate a toxicity in vivo, the solution which was mixed 50 μl/Kg of Yoshixol with 1 ml of 20% glucose solution was administered intravenously in unanesthetized animals (rabbit and dog). […] Even though intravenous administration alone was done, it may be confirmed that it is safety.

[2] = rabbit and dog, 50 μl/Kg intravenously

C=C1CC(C)(C)C=CC1=O [Yoshixol, 4,4-dimethyl-6-methylene-2-cyclohexen-1-one]
concentration of the total amino acids in fibrinogen (human fibrinogen; 1 ml human fibrinogen 160 mg/dl): did not change
increase of concentration of cystathione in fibrinogen (human fibrinogen): more than 5 times
glutamic acid and hydroxyl serine in fibrinogen (human fibrinogen; existed before treatment): disappeared
duration of transitional signs after the administration [1, 2]: 1 to 2 min
platelets [1, 2]: A change in platelets was not observed
pathological findings in the vital organs, macroscopically and microscopically ([1]; rabbit and dog, 50 μl/Kg intravenously, after 1 month): any pathological findings were not observed
abnormal behavior ([1]; rabbit and dog, 50 μl/Kg intravenously, observation period of 2 hours): an abnormal behavior was not found
abnormal behavior ([1]; rabbit and dog, 50 μl/Kg intravenously, observed over 1 month): any abnormal behavior did not found
white blood cells ([1]; rabbit and dog, 50 μl/Kg intravenously, recovery to normal level at 1 week): increased 3 days after administration
examination of blood, anemia ([1]; rabbit and dog, 50 μl/Kg intravenously, recovery to the normal after 1 week): hyperchromic anemia at the maximum level occurred 3 days after administration
respiration rate, blood pressure, heart rate and movements of an extremity after injection ([1]; unanesthetized rabbit and dog, 50 μl/Kg intravenously in 1 ml 20% glucose solution): transitional increase in respiration rate, increase in blood pressure and heart rate and active movements of an extremity (not convulsion)
